Measured values: patent US7262280B1, “G-protein fusion receptors and constructs encoding same” (NPS Pharmaceuticals, Inc., priority 1998, dated 2007)

Key:
Format in all cases: cell-based
[1] = target: T1, mGluR8//CaR*Gαqi5 (Homo sapiens, UniProt O00222); test: Calcium-activated chloride current in Xenopus oocytes injected with G-protein fusion receptor cRNA; conditions: 100 μM, Xenopus laevis oocytes, holding −60 mV, FIG. 15
T1 construct: ID; NO; 41; expressed in transfected cells; host or cells: Xenopus laevis oocytes injected with fusion receptor cRNA
Protocol: (§1) The different G-protein fusion receptors used in this example were as follows: mGluR2//CaR*Gqi5 (SEQ. ID. NO. 37), CaR/mGluR2*Gqi5 (SEQ. ID. NO. 33), and mGluR8//CaR*Gqi5 SEQ. ID. NO. 41.
(§2) Oocytes suitable for injection were obtained from adult female Xenopus laevis toads using procedures described in C. J. Marcus-Sekura and M. J. M. Hitchcock, Methods in Enzymology, Vol. 152 (1987).
(§3) Receptor fusion cRNAs were dissolved in water and 50 nl (12.5 ng/oocyte) were injected into individual oocytes. Following injection, oocytes were incubated at 16° C. in MBS containing 1 mM CaCl2 for two to seven days prior to electrophysiological recording.
(§4) Test substances were applied by superfusion at a flow rate of about 5 ml/minute. Receptor fusion activation was determined by measuring the increase in calcium-activated chloride current (ICl). Increases in ICl were quantified by measuring the peak inward current stimulated by activating agent, relative to the holding current at −60 mV. […] Application of 100 μM Gd^3+ activated the CaR/mGluR2*Gqi5.

[2] = target: mGluR2//CaR*Gαqi5 (Homo sapiens, UniProt Q14416, L8P); test: as above; conditions: 100 μM, Xenopus laevis oocytes, holding −60 mV, FIG. 15
[3] = target: T2, chimeric CaR/GABABR2 (CaR extracellular and transmembrane domains, and intracellular GABABR2 domain) (Homo sapiens, UniProt O75899+P41180); test: Calcium-activated chloride current in Xenopus oocytes co-injected with chimeric CaR/GABABR2 RNA and Gα15 RNA; conditions: 100 μM, voltage-clamped, 72-hour incubation, FIG. 8
T2 construct: chimeric CaR/GABABR2 (CaR extracellular and transmembrane domains, and intracellular GABABR2 domain); GABABR2 intracellular domain (fusion partner replacing the CaR tail); expressed in transfected cells; host or cells: Xenopus oocytes injected with in vitro-transcribed RNA
T2 sequence (P41180+O75899 with tags, fused parts or gaps): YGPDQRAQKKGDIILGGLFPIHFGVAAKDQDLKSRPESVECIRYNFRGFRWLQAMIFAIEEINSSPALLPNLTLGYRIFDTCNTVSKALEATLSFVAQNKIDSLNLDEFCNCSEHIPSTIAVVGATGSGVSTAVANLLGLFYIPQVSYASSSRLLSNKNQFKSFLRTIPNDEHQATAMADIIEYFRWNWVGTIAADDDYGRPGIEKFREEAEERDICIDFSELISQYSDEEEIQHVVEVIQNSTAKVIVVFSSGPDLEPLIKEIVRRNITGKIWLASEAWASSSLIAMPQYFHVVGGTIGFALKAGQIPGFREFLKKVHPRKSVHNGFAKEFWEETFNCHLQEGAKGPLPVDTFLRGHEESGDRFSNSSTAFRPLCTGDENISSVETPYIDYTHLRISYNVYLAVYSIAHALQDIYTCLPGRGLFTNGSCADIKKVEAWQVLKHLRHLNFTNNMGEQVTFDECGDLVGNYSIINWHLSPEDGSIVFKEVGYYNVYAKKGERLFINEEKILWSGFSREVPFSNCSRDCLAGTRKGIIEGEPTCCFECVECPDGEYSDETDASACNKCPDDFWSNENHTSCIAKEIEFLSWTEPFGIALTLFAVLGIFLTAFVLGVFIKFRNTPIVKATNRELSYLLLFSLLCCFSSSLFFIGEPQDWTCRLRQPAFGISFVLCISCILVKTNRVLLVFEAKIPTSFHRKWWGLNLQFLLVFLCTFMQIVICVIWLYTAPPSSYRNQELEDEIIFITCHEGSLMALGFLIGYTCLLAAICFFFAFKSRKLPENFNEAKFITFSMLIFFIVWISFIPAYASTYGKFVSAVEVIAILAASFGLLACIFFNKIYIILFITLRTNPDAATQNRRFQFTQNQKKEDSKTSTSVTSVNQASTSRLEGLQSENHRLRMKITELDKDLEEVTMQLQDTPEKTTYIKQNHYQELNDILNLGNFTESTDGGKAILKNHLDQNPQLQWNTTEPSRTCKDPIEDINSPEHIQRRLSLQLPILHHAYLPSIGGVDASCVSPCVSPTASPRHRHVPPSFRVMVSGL
Protocol: FIG. 8 illustrates the ability of a chimeric CaR/GABABR2 (CaR extracellular and transmembrane domains, and intracellular GABABR2 domain) to transduce a signal. Signal production was measured by detecting an increase in the calcium-activated chloride current. The line in the middle of the increase signifies a wash step.
In vitro-transcribed RNA (7 ng) encoding a chimeric CaR/GABABR2 (CaR extracellular and transmembrane domains, and intracellular GABABR2 domain) was co-injected with in vitro-transcribed RNA (2 ng) encoding Gα15 into Xenopus oocytes. Following a 72-hour incubation, the oocytes were voltage-clamped using standard electrophysiological techniques (B. Hille, Ionic Channels of Exictable Membranes, pp. 30-33, Sinauer Associates, Inc., Sunderland, Ma., 1992). Activation of the chimeric receptor was detected by increases in the calcium-activated chloride current.
In this assay, the Gα15 subunit acts to promote signal transduction through intracellular pathways that mobilize intracellular Ca^++.

[4] = target: T3, CaR/mGluR2*Gqi5 (Homo sapiens, UniProt P41180); test: Calcium-activated chloride current in Xenopus oocytes injected with G-protein fusion receptor cRNA; conditions: 100 μM, Xenopus laevis oocytes, holding −60 mV, FIG. 15
T3 construct: expressed in transfected cells; host or cells: Xenopus laevis oocytes injected with fusion receptor cRNA
Protocol: as §1, §2, §3, §4

Sequence of mGluR2//CaR*Gαqi5 (Q14416 with tags, fused parts or gaps L8P): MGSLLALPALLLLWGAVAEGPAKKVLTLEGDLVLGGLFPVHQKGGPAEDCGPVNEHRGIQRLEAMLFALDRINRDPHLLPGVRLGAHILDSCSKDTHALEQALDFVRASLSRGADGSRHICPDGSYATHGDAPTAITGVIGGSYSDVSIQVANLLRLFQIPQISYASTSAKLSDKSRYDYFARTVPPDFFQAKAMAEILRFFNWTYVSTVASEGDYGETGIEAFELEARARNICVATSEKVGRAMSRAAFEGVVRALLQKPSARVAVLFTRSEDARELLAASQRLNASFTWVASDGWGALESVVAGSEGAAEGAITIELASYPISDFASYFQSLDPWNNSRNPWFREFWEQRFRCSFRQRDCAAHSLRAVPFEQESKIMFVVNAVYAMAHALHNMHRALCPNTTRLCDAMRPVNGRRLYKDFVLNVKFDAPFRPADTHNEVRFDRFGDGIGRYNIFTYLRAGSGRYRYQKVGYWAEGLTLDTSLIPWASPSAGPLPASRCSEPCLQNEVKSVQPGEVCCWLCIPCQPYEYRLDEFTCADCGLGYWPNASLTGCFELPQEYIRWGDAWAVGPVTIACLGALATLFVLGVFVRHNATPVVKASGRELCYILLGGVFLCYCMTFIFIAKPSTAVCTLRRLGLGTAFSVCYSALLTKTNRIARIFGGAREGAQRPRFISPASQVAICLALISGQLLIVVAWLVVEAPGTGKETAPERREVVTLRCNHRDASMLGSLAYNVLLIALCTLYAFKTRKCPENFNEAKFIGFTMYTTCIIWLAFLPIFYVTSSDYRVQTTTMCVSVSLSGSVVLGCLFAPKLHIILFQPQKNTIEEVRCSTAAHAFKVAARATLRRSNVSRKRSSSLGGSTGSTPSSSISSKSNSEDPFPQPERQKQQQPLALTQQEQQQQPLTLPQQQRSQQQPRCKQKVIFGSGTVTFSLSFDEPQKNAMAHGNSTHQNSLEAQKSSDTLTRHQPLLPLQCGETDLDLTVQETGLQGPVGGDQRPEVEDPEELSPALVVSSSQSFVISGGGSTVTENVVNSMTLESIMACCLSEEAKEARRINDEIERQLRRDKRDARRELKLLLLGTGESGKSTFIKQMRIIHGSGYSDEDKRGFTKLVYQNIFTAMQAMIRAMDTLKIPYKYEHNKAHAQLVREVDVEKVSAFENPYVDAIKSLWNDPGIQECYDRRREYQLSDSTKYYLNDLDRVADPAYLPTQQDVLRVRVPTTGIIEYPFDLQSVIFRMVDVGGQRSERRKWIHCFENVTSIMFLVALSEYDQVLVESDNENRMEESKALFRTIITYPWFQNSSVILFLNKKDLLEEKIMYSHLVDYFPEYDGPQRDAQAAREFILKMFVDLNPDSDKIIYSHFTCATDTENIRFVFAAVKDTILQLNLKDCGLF
T3 sequence (P41180 with tags, fused parts or gaps): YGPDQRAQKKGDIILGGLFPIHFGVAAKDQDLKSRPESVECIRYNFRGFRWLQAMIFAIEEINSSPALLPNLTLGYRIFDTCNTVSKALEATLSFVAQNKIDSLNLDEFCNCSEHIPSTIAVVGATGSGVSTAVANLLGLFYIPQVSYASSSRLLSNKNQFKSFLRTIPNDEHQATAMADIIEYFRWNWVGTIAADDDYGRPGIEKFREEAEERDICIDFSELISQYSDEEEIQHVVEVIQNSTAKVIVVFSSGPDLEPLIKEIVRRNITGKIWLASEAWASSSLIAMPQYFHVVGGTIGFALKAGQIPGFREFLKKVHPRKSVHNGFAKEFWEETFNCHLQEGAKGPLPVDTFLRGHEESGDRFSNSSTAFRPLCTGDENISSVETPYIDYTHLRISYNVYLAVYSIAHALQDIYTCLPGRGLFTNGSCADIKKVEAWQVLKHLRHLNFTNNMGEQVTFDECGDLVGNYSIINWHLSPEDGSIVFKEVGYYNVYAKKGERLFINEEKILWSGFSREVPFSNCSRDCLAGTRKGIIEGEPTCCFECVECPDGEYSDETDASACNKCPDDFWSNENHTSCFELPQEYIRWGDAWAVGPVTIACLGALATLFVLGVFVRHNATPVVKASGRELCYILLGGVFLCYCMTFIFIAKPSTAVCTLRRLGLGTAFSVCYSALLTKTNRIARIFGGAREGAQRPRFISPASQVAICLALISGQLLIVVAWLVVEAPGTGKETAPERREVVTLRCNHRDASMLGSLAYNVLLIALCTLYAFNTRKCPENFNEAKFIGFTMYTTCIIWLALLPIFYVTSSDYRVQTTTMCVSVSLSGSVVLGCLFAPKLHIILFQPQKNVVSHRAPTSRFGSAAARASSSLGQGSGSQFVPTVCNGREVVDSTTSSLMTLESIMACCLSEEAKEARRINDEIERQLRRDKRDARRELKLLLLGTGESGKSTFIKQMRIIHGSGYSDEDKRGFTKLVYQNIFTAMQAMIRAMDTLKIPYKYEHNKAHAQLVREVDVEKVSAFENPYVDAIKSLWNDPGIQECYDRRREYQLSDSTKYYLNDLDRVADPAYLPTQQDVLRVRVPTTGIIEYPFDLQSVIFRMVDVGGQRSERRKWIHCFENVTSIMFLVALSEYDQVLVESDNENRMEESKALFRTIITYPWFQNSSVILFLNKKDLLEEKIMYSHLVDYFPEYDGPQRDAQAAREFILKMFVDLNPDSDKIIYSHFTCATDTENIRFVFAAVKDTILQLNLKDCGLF
T1 sequence (O00222 with tags, fused parts or gaps): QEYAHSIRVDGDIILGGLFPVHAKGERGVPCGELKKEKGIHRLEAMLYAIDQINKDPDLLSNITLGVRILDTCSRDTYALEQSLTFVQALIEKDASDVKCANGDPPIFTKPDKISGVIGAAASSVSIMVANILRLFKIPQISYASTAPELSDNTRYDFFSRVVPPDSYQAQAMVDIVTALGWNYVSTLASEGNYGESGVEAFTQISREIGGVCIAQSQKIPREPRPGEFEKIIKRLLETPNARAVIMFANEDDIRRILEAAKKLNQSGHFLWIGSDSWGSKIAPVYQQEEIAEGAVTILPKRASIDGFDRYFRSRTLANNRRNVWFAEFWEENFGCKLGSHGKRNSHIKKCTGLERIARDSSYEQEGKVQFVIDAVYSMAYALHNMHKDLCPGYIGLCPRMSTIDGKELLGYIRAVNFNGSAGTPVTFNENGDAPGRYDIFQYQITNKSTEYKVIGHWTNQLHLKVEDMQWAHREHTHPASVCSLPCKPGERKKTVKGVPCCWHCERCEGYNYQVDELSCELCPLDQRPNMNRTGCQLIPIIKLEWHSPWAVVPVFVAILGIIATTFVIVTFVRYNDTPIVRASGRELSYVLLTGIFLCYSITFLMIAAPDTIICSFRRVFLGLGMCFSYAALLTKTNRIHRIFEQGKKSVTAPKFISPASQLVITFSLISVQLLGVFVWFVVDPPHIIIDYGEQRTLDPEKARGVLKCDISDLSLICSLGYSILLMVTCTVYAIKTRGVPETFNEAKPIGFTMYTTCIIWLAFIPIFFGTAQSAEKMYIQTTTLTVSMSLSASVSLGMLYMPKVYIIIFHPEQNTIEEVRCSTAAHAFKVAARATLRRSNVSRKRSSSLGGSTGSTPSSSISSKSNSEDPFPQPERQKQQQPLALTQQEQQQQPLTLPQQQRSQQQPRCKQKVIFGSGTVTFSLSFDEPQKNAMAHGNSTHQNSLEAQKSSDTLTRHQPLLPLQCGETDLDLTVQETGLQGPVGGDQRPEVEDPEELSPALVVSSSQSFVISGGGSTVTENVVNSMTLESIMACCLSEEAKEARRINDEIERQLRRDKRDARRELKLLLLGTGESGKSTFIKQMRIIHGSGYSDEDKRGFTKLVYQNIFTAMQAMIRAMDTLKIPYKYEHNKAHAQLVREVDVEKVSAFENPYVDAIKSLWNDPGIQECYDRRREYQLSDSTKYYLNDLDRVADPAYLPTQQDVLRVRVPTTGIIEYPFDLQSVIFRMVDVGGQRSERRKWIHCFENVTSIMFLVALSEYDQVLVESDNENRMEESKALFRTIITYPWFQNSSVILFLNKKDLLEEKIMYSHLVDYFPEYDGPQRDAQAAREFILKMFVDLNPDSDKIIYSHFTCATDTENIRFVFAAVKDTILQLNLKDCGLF

SMILES | receptor fusion activation, increase in calcium-activated chloride current (ICl) [1] | receptor fusion activation, increase in calcium-activated chloride current (ICl) [2] | activation of the chimeric receptor detected by increases in the calcium-activated chloride current [3] | receptor fusion activation, increase in calcium-activated chloride current (ICl) [4]
N[C@@H](CCC(=O)O)C(=O)O [L-glutamate] | elicited a response | elicited a response |  | 
[Gd+3] [Gd^3+] |  |  | reversible, oscillatory increases in the calcium-activated chloride current | activated
